In US20260356840A1, “[1,2,4]TRIAZOLO[1,5-A]PYRIMIDINONE WRN INHIBITORS” (Nimbus Wadjet, Inc., priority 2023, published 2026) one finds IC50 data, which are given here for 20 compounds.

The target in this assay is T1, human Werner helicase (Uniprot Q14191, amino acids 517-1235 with L1074F point mutation), WRN-BV08 (Homo sapiens, UniProt Q14191, L1074F).
T1 construct: Uniprot Q14191, amino acids 517-1235 with L1074F point mutation; TEV cleavable 8xHis tag (C, cleaved yes); made in house; host or cells: Sf9 insect cells (baculovirus, pFastBac)
T1 sequence (Q14191 517-1235 L1074F): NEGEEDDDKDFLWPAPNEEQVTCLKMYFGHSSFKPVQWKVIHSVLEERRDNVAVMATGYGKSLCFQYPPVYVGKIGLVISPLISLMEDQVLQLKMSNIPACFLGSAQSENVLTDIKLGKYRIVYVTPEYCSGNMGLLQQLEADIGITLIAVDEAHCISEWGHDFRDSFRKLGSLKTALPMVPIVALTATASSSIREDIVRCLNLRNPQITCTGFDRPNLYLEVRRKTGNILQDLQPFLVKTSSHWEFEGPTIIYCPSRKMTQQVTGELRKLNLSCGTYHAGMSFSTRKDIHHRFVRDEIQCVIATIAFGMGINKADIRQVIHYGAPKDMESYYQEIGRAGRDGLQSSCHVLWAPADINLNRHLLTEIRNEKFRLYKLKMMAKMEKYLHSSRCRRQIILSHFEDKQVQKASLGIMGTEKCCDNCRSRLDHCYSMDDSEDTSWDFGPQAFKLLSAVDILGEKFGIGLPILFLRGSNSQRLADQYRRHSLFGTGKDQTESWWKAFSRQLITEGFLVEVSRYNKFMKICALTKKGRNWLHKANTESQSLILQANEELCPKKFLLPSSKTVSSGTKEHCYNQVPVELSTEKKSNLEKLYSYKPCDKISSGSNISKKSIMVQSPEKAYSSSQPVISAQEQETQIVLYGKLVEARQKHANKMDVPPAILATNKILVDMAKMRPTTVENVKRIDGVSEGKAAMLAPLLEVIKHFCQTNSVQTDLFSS
Kind of assay: WRN (BV08) ADP-Glo Assay. In kind it is biochemical.
What is called IC50 is the point on the concentration scale where inhibition reaches its midpoint. A higher IC50 goes with weaker potency in that assay. On to `CCc1c(N2CCN(C(=O)c3c(C)nn(C)c3OC)CC2)c(=O)n2nc(-c3ccnc(OC)c3)nc2n1CC(=O)Nc1ccc(C(F)(F)F)cc1Cl` [Compound I-62, N-[2-chloro-4-(trifluoromethyl)phenyl]-2-{5-ethyl-6-[4-(5-methoxy-1,3-dimethyl-1H-pyrazole-4-carbonyl)piperazin-1-yl]-2-(2-methoxypyridin-4-yl)-7-oxo-4H,7H-[1,2,4]triazolo[1,5-a]pyrimidin-4-yl}acetamide], for which the concentration for half-maximal inhibition (IC50) lay in the range of 5 to 50 nM.

Take `CCc1c(N2CCN(C(=O)c3cnnn3C)CC2)c(=O)n2nc(-c3ccnc(OC)c3)nc2n1CC(=O)Nc1ccc(C(F)(F)F)cc1Cl` [Compound I-63, N-[2-chloro-4-(trifluoromethyl)phenyl]-2-[5-ethyl-2-(2-methoxypyridin-4-yl)-6-[4-(1-methyl-1H-1,2,3-triazole-5-carbonyl)piperazin-1-yl]-7-oxo-4H,7H-[1,2,4]triazolo[1,5-a]pyrimidin-4-yl]acetamide]: the IC50 lay in the range of 5 to 50 nM.

For `CCc1c(N2CCN(C(=O)c3cnn(C)c3)CC2)c(=O)n2nc(-c3ccnc(OC)n3)nc2n1CC(=O)Nc1ccc(C(F)(F)F)cc1Cl` [Compound I-64, N-[2-chloro-4-(trifluoromethyl)phenyl]-2-[5-ethyl-2-(2-methoxypyrimidin-4-yl)-6-[4-(1-methyl-1H-pyrazole-4-carbonyl)piperazin-1-yl]-7-oxo-4H,7H-[1,2,4]triazolo[1,5-a]pyrimidin-4-yl]acetamide], the half-maximal inhibitory concentration (IC50) was in the range of 5 to 50 nM.

Turning to `CCc1c(N2CCN(C(=O)c3cc(C)no3)CC2)c(=O)n2nc(-c3ccnc(OC)c3)nc2n1CC(=O)Nc1ccc(C(F)(F)F)cc1Cl` [Compound I-65, N-[2-chloro-4-(trifluoromethyl)phenyl]-2-[5-ethyl-2-(2-methoxypyridin-4-yl)-6-[4-(3-methyl-1,2-oxazole-5-carbonyl)piperazin-1-yl]-7-oxo-4H,7H-[1,2,4]triazolo[1,5-a]pyrimidin-4-yl]acetamide], the half-inhibitory concentration (IC50) is 5 to 50 nM.

`CCc1c(N2CCN(C(=O)c3ccnn3C)CC2)c(=O)n2nc(-c3ccnc(OC)c3)nc2n1CC(=O)Nc1ccc(C(F)(F)F)cc1Cl` [Compound I-66, N-[2-chloro-4-(trifluoromethyl)phenyl]-2-[5-ethyl-2-(2-methoxypyridin-4-yl)-6-[4-(1-methyl-1H-pyrazole-5-carbonyl)piperazin-1-yl]-7-oxo-4H,7H-[1,2,4]triazolo[1,5-a]pyrimidin-4-yl]acetamide] yielded an IC50 of 5 to 50 nM.

`CCc1c(N2CCN(C(=O)c3cnc(C)o3)CC2)c(=O)n2nc(-c3ccnc(OC)c3)nc2n1CC(=O)Nc1ccc(C(F)(F)F)cc1Cl` [Compound I-67, N-[2-chloro-4-(trifluoromethyl)phenyl]-2-[5-ethyl-2-(2-methoxypyridin-4-yl)-6-[4-(2-methyl-1,3-oxazole-5-carbonyl)piperazin-1-yl]-7-oxo-4H,7H-[1,2,4]triazolo[1,5-a]pyrimidin-4-yl]acetamide] displayed a half-inhibitory concentration (IC50) of 5 to 50 nM.

The compound `CCc1c(N2CCC3C2CCN3C(=O)c2cnn(C)c2)c(=O)n2nc(C3=CCOCC3)nc2n1CC(=O)Nc1ccc(C(F)(F)F)cc1Cl` (centres unmarked) [Compound I-68, N-[2-chloro-4-(trifluoromethyl)phenyl]-2-[2-(3,6-dihydro-2H-pyran-4-yl)-5-ethyl-6-[4-(1-methyl-1H-pyrazole-4-carbonyl)-octahydropyrrolo[3,2-b]pyrrol-1-yl]-7-oxo-4H,7H-[1,2,4]triazolo[1,5-a]pyrimidin-4-yl]acetamide] had an IC50 of 50 to 100 nM.

`CCc1c(N2CCN(C(=O)c3cnn(C)c3)CC2)c(=O)n2nc(-c3cc(OC)ccn3)nc2n1CC(=O)Nc1ccc(C(F)(F)F)cc1Cl` [Compound I-69, N-[2-chloro-4-(trifluoromethyl)phenyl]-2-[5-ethyl-2-(4-methoxypyridin-2-yl)-6-[4-(1-methyl-1H-pyrazole-4-carbonyl)piperazin-1-yl]-7-oxo-4H,7H-[1,2,4]triazolo[1,5-a]pyrimidin-4-yl]acetamide]: the IC50 is 5 to 50 nM.

As to `CCc1c(N2CCN(C(=O)c3cnn(C)c3)CC2)c(=O)n2nc(-c3nccc(OC)n3)nc2n1CC(=O)Nc1ccc(C(F)(F)F)cc1Cl` [Compound I-70, N-[2-chloro-4-(trifluoromethyl)phenyl]-2-[5-ethyl-2-(4-methoxypyrimidin-2-yl)-6-[4-(1-methyl-1H-pyrazole-4-carbonyl)piperazin-1-yl]-7-oxo-4H,7H-[1,2,4]triazolo[1,5-a]pyrimidin-4-yl]acetamide], the IC50 was 100 to 500 nM.

For `CCc1c(N2CCN(C(=O)c3cnn(C)c3)CC2)c(=O)n2nc(-c3cc(OC)ncn3)nc2n1CC(=O)Nc1ccc(C(F)(F)F)cc1Cl` [Compound I-71, N-[2-chloro-4-(trifluoromethyl)phenyl]-2-[5-ethyl-2-(6-methoxypyrimidin-4-yl)-6-[4-(1-methyl-1H-pyrazole-4-carbonyl)piperazin-1-yl]-7-oxo-4H,7H-[1,2,4]triazolo[1,5-a]pyrimidin-4-yl]acetamide], the IC50 fell in the range of 5 to 50 nM.

In turn, `CCc1c(N2CCN(C(=O)c3cnn(C)c3)CC2)c(=O)n2nc(-c3cc(OC)ncc3F)nc2n1CC(=O)Nc1ccc(C(F)(F)F)cc1Cl` [Compound I-72, N-[2-chloro-4-(trifluoromethyl)phenyl]-2-[5-ethyl-2-(5-fluoro-2-methoxypyridin-4-yl)-6-[4-(1-methyl-1H-pyrazole-4-carbonyl)piperazin-1-yl]-7-oxo-4H,7H-[1,2,4]triazolo[1,5-a]pyrimidin-4-yl]acetamide] displayed an IC50 of 5 to 50 nM.

`CCc1c(N2CCN(C(=O)c3ncn(C)n3)CC2)c(=O)n2nc(-c3ccnc(OC)c3)nc2n1CC(=O)Nc1ccc(C(F)(F)F)cc1Cl` [Compound I-73, N-[2-chloro-4-(trifluoromethyl)phenyl]-2-[5-ethyl-2-(2-methoxypyridin-4-yl)-6-[4-(1-methyl-1H-1,2,4-triazole-3-carbonyl)piperazin-1-yl]-7-oxo-4H,7H-[1,2,4]triazolo[1,5-a]pyrimidin-4-yl]acetamide] showed an IC50 of 5 to 50 nM.

As for `CCc1c(N2CCN(C(=O)c3nnn(C)n3)CC2)c(=O)n2nc(-c3ccnc(OC)c3)nc2n1CC(=O)Nc1ccc(C(F)(F)F)cc1Cl` [Compound I-74, N-[2-chloro-4-(trifluoromethyl)phenyl]-2-[5-ethyl-2-(2-methoxypyridin-4-yl)-6-[4-(2-methyl-2H-1,2,3,4-tetrazole-5-carbonyl)piperazin-1-yl]-7-oxo-4H,7H-[1,2,4]triazolo[1,5-a]pyrimidin-4-yl]acetamide], the IC50 lay within 5 to 50 nM.

As to `CCc1c(N2CCN(C(=O)c3coc(C)n3)CC2)c(=O)n2nc(-c3ccnc(OC)c3)nc2n1CC(=O)Nc1ccc(C(F)(F)F)cc1Cl` [Compound I-75, N-[2-chloro-4-(trifluoromethyl)phenyl]-2-[5-ethyl-2-(2-methoxypyridin-4-yl)-6-[4-(2-methyl-1,3-oxazole-4-carbonyl)piperazin-1-yl]-7-oxo-4H,7H-[1,2,4]triazolo[1,5-a]pyrimidin-4-yl]acetamide], the concentration for half-maximal inhibition (IC50) lay in the range of 5 to 50 nM.

On to `CCc1c(N2CCN(C(=O)c3cc(C)ns3)CC2)c(=O)n2nc(-c3ccnc(OC)c3)nc2n1CC(=O)Nc1ccc(C(F)(F)F)cc1Cl` [Compound I-76, N-[2-chloro-4-(trifluoromethyl)phenyl]-2-[5-ethyl-2-(2-methoxypyridin-4-yl)-6-[4-(3-methyl-1,2-thiazole-5-carbonyl)piperazin-1-yl]-7-oxo-4H,7H-[1,2,4]triazolo[1,5-a]pyrimidin-4-yl]acetamide], for which the IC50 lay within 5 to 50 nM.

Regarding `CCc1c(N2CCN(C(=O)c3cnn(C)c3)[C@H](C)C2)c(=O)n2nc(-c3ccnc(OC)c3)nc2n1CC(=O)Nc1ccc(C(F)(F)F)cc1Cl` [Compound I-77, N-[2-chloro-4-(trifluoromethyl)phenyl]-2-[5-ethyl-2-(2-methoxypyridin-4-yl)-6-[(3R)-3-methyl-4-(1-methyl-1H-pyrazole-4-carbonyl)piperazin-1-yl]-7-oxo-4H,7H-[1,2,4]triazolo[1,5-a]pyrimidin-4-yl]acetamide], the 50% inhibitory concentration (IC50) was 5 to 50 nM.

As to `CCc1c(N2CCN(C(=O)c3noc(C)n3)CC2)c(=O)n2nc(-c3ccnc(OC)c3)nc2n1CC(=O)Nc1ccc(C(F)(F)F)cc1Cl` [Compound I-78, N-[2-chloro-4-(trifluoromethyl)phenyl]-2-[5-ethyl-2-(2-methoxypyridin-4-yl)-6-[4-(5-methyl-1,2,4-oxadiazole-3-carbonyl)piperazin-1-yl]-7-oxo-4H,7H-[1,2,4]triazolo[1,5-a]pyrimidin-4-yl]acetamide], the half-maximal inhibitory concentration (IC50) is 5 to 50 nM.

Turning to `CCc1c(N2CCN(C(=O)c3ncnn3C)CC2)c(=O)n2nc(-c3ccnc(OC)c3)nc2n1CC(=O)Nc1ccc(C(F)(F)F)cc1Cl` [Compound I-79, N-[2-chloro-4-(trifluoromethyl)phenyl]-2-[5-ethyl-2-(2-methoxypyridin-4-yl)-6-[4-(1-methyl-1H-1,2,4-triazole-5-carbonyl)piperazin-1-yl]-7-oxo-4H,7H-[1,2,4]triazolo[1,5-a]pyrimidin-4-yl]acetamide], the half-maximal inhibitory concentration (IC50) was 5 to 50 nM.

Take `CCc1c(N2CCN(C(=O)c3ccnc(OC)c3O)CC2)c(=O)n2nc(-c3ccnc(OC)c3)nc2n1CC(=O)Nc1ccc(C(F)(F)F)cc1Cl` [Compound I-80, N-[2-chloro-4-(trifluoromethyl)phenyl]-2-{5-ethyl-6-[4-(3-hydroxy-2-methoxypyridine-4-carbonyl)piperazin-1-yl]-2-(2-methoxypyridin-4-yl)-7-oxo-4H,7H-[1,2,4]triazolo[1,5-a]pyrimidin-4-yl}acetamide]: the IC50 was in the range of 5 to 50 nM.

`COc1cc(-c2nc3n(CC(=O)Nc4ccc(C(F)(F)F)cc4Cl)cc(C4CCN(C(=O)c5ncnc(C)c5O)CC4)c(=O)n3n2)ccn1` [Compound I-81, N-[2-chloro-4-(trifluoromethyl)phenyl]-2-{6-[1-(5-hydroxy-6-methylpyrimidine-4-carbonyl)piperidin-4-yl]-2-(2-methoxypyridin-4-yl)-7-oxo-4H,7H-[1,2,4]triazolo[1,5-a]pyrimidin-4-yl}acetamide] yielded an IC50 of 100 to 500 nM.
